Laboratory results: patent US9682079B2, “Composition for treatment of pathogens that are resistant to tetracyclines” (BIOVERSYS AG, priority 2013, dated 2017)

Legend:
TetR/tetO interaction = experiment: DNA/protein (tetO/TetR) interaction assay, FortéBio Octet Red; assay type: binding; conditions: % association of TetR to tetO; compound 10 μg/mL & tetracycline 10 ng/mL mix in running buffer; normalized to DMSO control
Experimental: Biacore Based DNA/Protein (tetO/TetR) Interaction Assay
The FortéBio technology (FortéBio, Inc., Menlo Park, Calif., USA) is a novel label-free methodology for analyzing macromolecular ligand/capture interactions. The Octet system can be used to measure real-time, label-free analysis of biomolecular interactions and provide information on affinity, kinetics and concentration. The instrument is designed to assay up to eight samples in parallel in 2 min from a standard 96-well micro-plate. The detection technology utilized in the Octet is based on Biolayer Interferometry (BLI). BLI relies on the reflective property of white light and is implemented in the Octet via the use of fiber optic-based biosensors. The biosensors are coated with molecules chosen to capture the targeted ligands. The measurements were performed on an Octet Red system equipped with streptavidin biosensor tips (SA). Tips were purchased from FortéBio.
Interaction Studies: FortéBio's Octet Red
Interaction analyses were conducted at 30° C. in running buffer (HBS-P+5 mmol/L MgSO4) unless stated otherwise. (HBS-P buffer: 10 mM Hepes (pH 7.4), 150 mM NaCl, 0.005% (v/v) polysorbate P20, and 5 mmol/L MgSO4; a 10×HBS-P buffer from GE Healthcare was used). Temperature control on the Octet was accomplished by holding the instrument at room temperature so that it could be heated to 30° C. Sensor tips were pre-wet for 10 min in running buffer immediately prior to use, and the micro plates used in the Octet were filled with 200 μl of sample or buffer per well and agitated at 600 rpm. For the experiments commercially available precoated streptavidine tips were used (SA).
Biotinylated oligos were loaded onto the FortéBio SA fibers in HBS-P buffer pH 7.4. Protein binding experiments were run with HBS-P buffer unless stated otherwise. After each run the tip was regenerated (maximum 4 times) with running buffer containing 0.3% w/v sodium dodecylsulfate (SDS).
(§1) Correlation of the synergistic effect of compounds of the invention with tetracyclines on bacterial growth inhibition (% growth relative to DMSO; 4 μg/ml tetracyclines and 10 μg/ml compounds of the invention) and TetR/tetO interaction (% association of TetR to tetO relative to DMSO). Bacterial growth was analysed 16 to 20 hours after inoculation according to CLSI guidelines. OD610 was determined with a Tecan Infinite F200 and normalized to the DMSO control. The interaction of TRIC compounds with the TetR protein and the effect on TetR-tetO operator DNA binding was analyzed with a FortéBio's Octet red and normalized to the DMSO control.

[1] = test system: Antibiotic-resistant staphylococcal, enterococcal, enterobacterial or acinetobacter isolates; experiment: Broth micro-dilution assay in clinical patient isolates, compound in combination with tetracyclines; assay type: cell-based; conditions: 4 μg/ml tetracyclines and 10 μg/ml compound; OD610 16 to 20 hours after inoculation, normalized to DMSO control (100%)
Source text: Microdilution Assay in Clinical Patient Isolates
Broth Micro-Dilution Assay in Cation-Adjusted Mueller-Hinton (CA-MHB)
The assay protocol is adapted from the Clinical and Laboratory Standards Institute (CLSI) standardized method for broth microdilution. This methodology was used to evaluate the susceptibility of pathogenic clinical isolates towards different antibiotics in combination with a compound of the invention.
Antibiotic-resistant staphylococcal, enterococcal, enterobacterial or acinetobacter isolates were scraped from fresh Orientation Agar plates, suspended in saline solution with the turbidity adjusted to OD610 of 0.1 (corresponds to 0.5 McFarland scale). Subsequently, the cultures were diluted 160× in CA-MHB medium and a volume of 80 μl was dispensed into each well of a 96 well microtiter plate. Plates were covered and incubated for 16 to 20 hours at 35° C. without shaking. Plates were then visually analyzed, scanned and subsequently the OD610 was determined. Average and standard deviations were calculated from at least two wells with the same condition. Values were normalized to the DMSO control (which is 100%).
as §1

## O=C(NCc1cc(O)ccc1O)c1ccccc1 [Example 1, N-[(2,5-dihydroxyphenyl)methyl]benzamide]
TetR/tetO interaction
  Association (% rel. to DMSO): 15.84%
[1]
  Growth (% rel. to DMSO): 55.20%

## O=C(NCc1cc(O)ccc1O)c1cc(F)cc(F)c1 [Example 2]
TetR/tetO interaction
  Association (% rel. to DMSO): 51.60%
[1]
  Growth (% rel. to DMSO): 34.40%

## O=C(NCCc1cc(O)ccc1O)c1ccccc1 [Example 3]
TetR/tetO interaction
  Association (% rel. to DMSO): 63.20%
[1]
  Growth (% rel. to DMSO): 41.10%

## O=C(c1cc(O)ccc1O)N1CCN(c2ccccc2)CC1 [Example 4]
[1]
  Growth (% rel. to DMSO): 63.87%

## O=C(NCc1cc(O)ccc1O)c1ccccc1F [Example 5]
TetR/tetO interaction
  Association (% rel. to DMSO): 30.49%
[1]
  Growth (% rel. to DMSO): 56.57%

## O=C(NCc1cc(O)ccc1O)c1cccc(F)c1 [Example 6]
TetR/tetO interaction
  Association (% rel. to DMSO): 25.61%
[1]
  Growth (% rel. to DMSO): 60.43%

## O=C(NCc1cc(O)ccc1O)c1cc(F)ccc1O [Example 7]
TetR/tetO interaction
  Association (% rel. to DMSO): 26.83%
[1]
  Growth (% rel. to DMSO): 56.50%

## O=C(NCc1cc(O)ccc1O)c1cc(F)ccc1F [Example 8]
TetR/tetO interaction
  Association (% rel. to DMSO): 42.57%
[1]
  Growth (% rel. to DMSO): 69.68%

## O=C(NCc1cc(O)ccc1O)c1ccc(C(F)(F)F)cc1 [Example 9]
TetR/tetO interaction
  Association (% rel. to DMSO): 16.22%
[1]
  Growth (% rel. to DMSO): 25.91%

## O=C(NCc1cc(O)ccc1O)c1cc(C(F)(F)F)ccc1C(F)(F)F [Example 10]
TetR/tetO interaction
  Association (% rel. to DMSO): 25.68%
[1]
  Growth (% rel. to DMSO): 47.14%

## O=C(NCc1cc(O)ccc1O)c1cc(C(F)(F)F)cc(C(F)(F)F)c1 [Example 11]
TetR/tetO interaction
  Association (% rel. to DMSO): 19.59%
[1]
  Growth (% rel. to DMSO): 26.14%

## CCCCC(=O)NCc1ccc(-c2ccccc2)cc1O [Example 12, N-[(2-hydroxy-4-phenyl-phenyl)-methyl]pentanamide]
TetR/tetO interaction
  Association (% rel. to DMSO): 1.60%
[1]
  Growth (% rel. to DMSO): 5.76%

## CCC(=O)NCc1cc(OC)c(-c2ccccc2)cc1OC [Example 13]
[1]
  Growth (% rel. to DMSO): 4.74%

## CCC(=O)Nc1ccccc1Oc1ccc(Cl)cc1 [Example 14, N-[2-(4-chlorophenoxyl)phenyl]propanamide]
TetR/tetO interaction
  Association (% rel. to DMSO): 10.26%
[1]
  Growth (% rel. to DMSO): 18.21%

## CCCCC(=O)Nc1ccccc1Oc1ccc(Cl)cc1 [Example 15]
TetR/tetO interaction
  Association (% rel. to DMSO): 85.19%
[1]
  Growth (% rel. to DMSO): 4.88%

## O=C(CCc1ccccc1)Nc1ccccc1Oc1ccc(Cl)cc1 [Example 16]
TetR/tetO interaction
  Association (% rel. to DMSO): 2.52%
[1]
  Growth (% rel. to DMSO): 6.15%

## CC(C)C(=O)NCc1cccc(-c2ccccc2)c1O [Example 17]
TetR/tetO interaction
  Association (% rel. to DMSO): 70.49%
[1]
  Growth (% rel. to DMSO): 8.11%

## COc1ccc(OC)c2c1CCC(C(=O)NCC(C)C)C2 (stereo not shown) [Example 18]
TetR/tetO interaction
  Association (% rel. to DMSO): 13.64%
[1]
  Growth (% rel. to DMSO): 103.70%

## CC(C)CNC(=O)C1CCc2c(O)ccc(O)c2C1 (stereo not shown) [Example 19]
TetR/tetO interaction
  Association (% rel. to DMSO): 54.02%
[1]
  Growth (% rel. to DMSO): 11.50%

## COc1ccc(OC)c2c1CCCC2C(=O)NCC(C)C (stereo not shown) [Example 20, N-isobutyl-5,8-dimethoxy-tetralin-1-carboxamide]
TetR/tetO interaction
  Association (% rel. to DMSO): 97.40%
[1]
  Growth (% rel. to DMSO): 63.75%

## CC(C)CNC(=O)C1CCc2c(c(O)c3ccccc3c2O)C1 (stereo not shown) [Example 21]
[1]
  Growth (% rel. to DMSO): 25.77%

## CC(C)CNC(=O)C1CCc2c(O)c3c(c(O)c2C1)C(=O)C=CC3=O (stereo not shown) [Example 22]
TetR/tetO interaction
  Association (% rel. to DMSO): 108.99%
[1]
  Growth (% rel. to DMSO): 61.29%

## O=C(NCc1cc(F)cc(F)c1)C1CCc2c(O)ccc(O)c2C1 (stereo not shown) [Example 23, N-[(3,5-difluorophenyl)methyl]-5,8-dihydroxy-tetralin-2-carboxamide]
TetR/tetO interaction
  Association (% rel. to DMSO): 22.69%
[1]
  Growth (% rel. to DMSO): 8.15%

## O=C(NCc1ccccc1)C1CCc2c(O)ccc(O)c2C1 (stereo not shown) [Example 24]
TetR/tetO interaction
  Association (% rel. to DMSO): 54.12%
[1]
  Growth (% rel. to DMSO): 48.15%

## O=C(NCc1cc(C(F)(F)F)cc(C(F)(F)F)c1)C1CCc2c(O)ccc(O)c2C1 (stereo not shown) [Example 25]
TetR/tetO interaction
  Association (% rel. to DMSO): 11.76%
[1]
  Growth (% rel. to DMSO): 90.15%

## CN(Cc1ccccc1)C(=O)C1CCc2c(O)ccc(O)c2C1 (stereo not shown) [Example 26]
TetR/tetO interaction
  Association (% rel. to DMSO): 43.52%
[1]
  Growth (% rel. to DMSO): 55.92%

## O=C(NCc1ccc(C(F)(F)F)cc1)C1CCc2c(O)ccc(O)c2C1 (stereo not shown) [Example 27]
TetR/tetO interaction
  Association (% rel. to DMSO): 23.15%
[1]
  Growth (% rel. to DMSO): 58.69%

## O=C(Nc1nnc(-c2ccc(O)cc2)s1)C1CCc2c(O)ccc(O)c2C1 (stereo not shown) [Example 28]
TetR/tetO interaction
  Association (% rel. to DMSO): 36.62%
[1]
  Growth (% rel. to DMSO): 46.79%

## CC(C)(C)c1ccc(CNC(=O)C2CCc3c(O)ccc(O)c3C2)cc1 (stereo not shown) [Example 29]
[1]
  Growth (% rel. to DMSO): 23.58%

## O=C(NCc1ccc(-c2ccccc2)cc1)C1CCc2c(O)ccc(O)c2C1 (stereo not shown) [Example 30]
TetR/tetO interaction
  Association (% rel. to DMSO): 25.35%
[1]
  Growth (% rel. to DMSO): 15.00%

## O=C(NCc1cc(F)ccc1O)C1CCc2c(O)ccc(O)c2C1 (stereo not shown) [Example 31]
TetR/tetO interaction
  Association (% rel. to DMSO): 20.42%
[1]
  Growth (% rel. to DMSO): 68.68%

## O=C(Nc1ccccc1)C1CCc2c(O)ccc(O)c2C1 (stereo not shown) [Example 32]
TetR/tetO interaction
  Association (% rel. to DMSO): 25.35%
[1]
  Growth (% rel. to DMSO): 58.27%

## O=C(NCCCc1ccccc1)C1CCc2c(O)ccc(O)c2C1 (stereo not shown) [Example 33]
TetR/tetO interaction
  Association (% rel. to DMSO): 19.05%
[1]
  Growth (% rel. to DMSO): 16.62%

## O=C(NCC1CCCCC1)C1CCc2c(O)ccc(O)c2C1 (stereo not shown) [Example 34]
TetR/tetO interaction
  Association (% rel. to DMSO): 21.09%
[1]
  Growth (% rel. to DMSO): 13.58%

## O=C(NCc1cc(F)ccc1F)C1CCc2c(O)ccc(O)c2C1 (stereo not shown) [Example 35]
TetR/tetO interaction
  Association (% rel. to DMSO): 30.61%
[1]
  Growth (% rel. to DMSO): 25.80%

## O=C(NCc1ccc(F)cc1F)C1CCc2c(O)ccc(O)c2C1 (stereo not shown) [Example 36]
TetR/tetO interaction
  Association (% rel. to DMSO): 27.89%
[1]
  Growth (% rel. to DMSO): 33.52%

## O=C(Nc1ccccc1Oc1ccc(Cl)cc1)C1CCc2c(O)ccc(O)c2C1 (stereo not shown) [Example 37]
TetR/tetO interaction
  Association (% rel. to DMSO): 14.18%
[1]
  Growth (% rel. to DMSO): 10.42%
